From PubChem BioAssay (NCI)
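These data come from cells grown in 96-well plates and exposed to compound for 48 hours at five concentrations. The concentration for full growth arrest is given as TGI.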

How the values were obtained:
Test in all cases: growth of human tumour cells (NCI), 48 h
786-0 renal = system: 786-0 renal
A498 renal = system: A498 renal
A549 NSCLC = system: A549 NSCLC
ACHN renal = system: ACHN renal
CAKI-1 renal = system: CAKI-1 renal
CCRF-CEM leukemia = system: CCRF-CEM leukemia
COLO 205 colon = system: COLO 205 colon
DLD-1 colon = system: DLD-1 colon
DMS 114 small cell lung = system: DMS 114 small cell lung
DMS 273 small cell lung = system: DMS 273 small cell lung
EKVX NSCLC = system: EKVX NSCLC
HCC-2998 colon = system: HCC-2998 colon
HCT-116 colon = system: HCT-116 colon
HCT-15 colon = system: HCT-15 colon
HL-60(TB) leukemia = system: HL-60(TB) leukemia
HOP-18 NSCLC = system: HOP-18 NSCLC
HOP-62 NSCLC = system: HOP-62 NSCLC
HOP-92 NSCLC = system: HOP-92 NSCLC
HT29 colon = system: HT29 colon
IGROV1 ovarian = system: IGROV1 ovarian
K-562 leukemia = system: K-562 leukemia
KM20L2 colon = system: KM20L2 colon
LXFL 529 NSCLC = system: LXFL 529 NSCLC
M14 melanoma = system: M14 melanoma
M19-MEL melanoma = system: M19-MEL melanoma
MALME-3M melanoma = system: MALME-3M melanoma
MOLT-4 leukemia = system: MOLT-4 leukemia
NCI-H23 lung = system: NCI-H23 lung
NCI-H460 lung = system: NCI-H460 lung
NCI-H522 lung = system: NCI-H522 lung
OVCAR-3 ovarian = system: OVCAR-3 ovarian
OVCAR-4 ovarian = system: OVCAR-4 ovarian
OVCAR-5 ovarian = system: OVCAR-5 ovarian
OVCAR-8 ovarian = system: OVCAR-8 ovarian
RPMI-8226 leukemia = system: RPMI-8226 leukemia
RXF 393 renal = system: RXF 393 renal
RXF-631 renal = system: RXF-631 renal
SF-268 CNS = system: SF-268 CNS
SF-295 CNS = system: SF-295 CNS
SF-539 CNS = system: SF-539 CNS
SK-MEL-2 melanoma = system: SK-MEL-2 melanoma
SK-MEL-28 melanoma = system: SK-MEL-28 melanoma
SK-MEL-5 melanoma = system: SK-MEL-5 melanoma
SK-OV-3 ovarian = system: SK-OV-3 ovarian
SN12C renal = system: SN12C renal
SNB-19 CNS = system: SNB-19 CNS
SNB-75 CNS = system: SNB-75 CNS
SNB-78 CNS = system: SNB-78 CNS
SW-620 colon = system: SW-620 colon
TK-10 renal = system: TK-10 renal
U251 CNS = system: U251 CNS
UACC-257 melanoma = system: UACC-257 melanoma
UACC-62 melanoma = system: UACC-62 melanoma
UO-31 renal = system: UO-31 renal
XF 498 CNS = system: XF 498 CNS
KM12 colon = system: KM12 colon
LOX IMVI melanoma = system: LOX IMVI melanoma
NCI-H226 lung = system: NCI-H226 lung

CCC1N2CCCCC2[C@@H]2c3[nH]c4ccccc4c3CCN12 (stereo not given in full)
TGI (786-0 renal): > 100 µM | TGI (A498 renal): > 100 µM | TGI (A549 NSCLC): > 100 µM | TGI (ACHN renal): > 100 µM | TGI (CAKI-1 renal): > 100 µM | TGI (CCRF-CEM leukemia): > 100 µM | TGI (COLO 205 colon): > 100 µM | TGI (DLD-1 colon): > 100 µM | TGI (DMS 114 small cell lung): > 100 µM | TGI (DMS 273 small cell lung): > 100 µM | TGI (EKVX NSCLC): > 100 µM | TGI (HCC-2998 colon): > 100 µM | TGI (HCT-116 colon): > 100 µM | TGI (HCT-15 colon): > 100 µM | TGI (HL-60(TB) leukemia): > 100 µM | TGI (HOP-18 NSCLC): > 100 µM | TGI (HOP-62 NSCLC): > 100 µM | TGI (HOP-92 NSCLC): > 100 µM | TGI (HT29 colon): > 100 µM | TGI (IGROV1 ovarian): > 100 µM | TGI (K-562 leukemia): > 100 µM | TGI (KM20L2 colon): > 100 µM | TGI (LXFL 529 NSCLC): > 100 µM | TGI (M14 melanoma): > 100 µM | TGI (M19-MEL melanoma): > 100 µM | TGI (MALME-3M melanoma): > 100 µM | TGI (MOLT-4 leukemia): > 100 µM | TGI (NCI-H23 lung): > 100 µM | TGI (NCI-H460 lung): > 100 µM | TGI (NCI-H522 lung): > 100 µM | TGI (OVCAR-3 ovarian): > 100 µM | TGI (OVCAR-4 ovarian): > 100 µM | TGI (OVCAR-5 ovarian): > 100 µM | TGI (OVCAR-8 ovarian): > 100 µM | TGI (RPMI-8226 leukemia): > 100 µM | TGI (RXF 393 renal): > 100 µM | TGI (RXF-631 renal): > 100 µM | TGI (SF-268 CNS): > 100 µM | TGI (SF-295 CNS): > 100 µM | TGI (SF-539 CNS): > 100 µM | TGI (SK-MEL-2 melanoma): > 100 µM | TGI (SK-MEL-28 melanoma): > 100 µM | TGI (SK-MEL-5 melanoma): > 100 µM | TGI (SK-OV-3 ovarian): > 100 µM | TGI (SN12C renal): > 100 µM | TGI (SNB-19 CNS): > 100 µM | TGI (SNB-75 CNS): > 100 µM | TGI (SNB-78 CNS): > 100 µM | TGI (SW-620 colon): > 100 µM | TGI (TK-10 renal): > 100 µM | TGI (U251 CNS): > 100 µM | TGI (UACC-257 melanoma): > 100 µM | TGI (UACC-62 melanoma): > 100 µM | TGI (UO-31 renal): > 100 µM | TGI (XF 498 CNS): > 100 µM

N#CC(C(=N/NC(N)=S)/C(=N\NC(N)=S)C(C#N)c1ccccc1)c1ccccc1 (stereo not given)
TGI (786-0 renal): > 10 µM | TGI (A498 renal): > 10 µM | TGI (A549 NSCLC): > 10 µM | TGI (ACHN renal): > 10 µM | TGI (CCRF-CEM leukemia): > 10 µM | TGI (COLO 205 colon): > 10 µM | TGI (DLD-1 colon): > 10 µM | TGI (DMS 114 small cell lung): > 10 µM | TGI (DMS 273 small cell lung): > 10 µM | TGI (EKVX NSCLC): > 10 µM | TGI (HCC-2998 colon): > 10 µM | TGI (HCT-116 colon): > 10 µM | TGI (HCT-15 colon): > 10 µM | TGI (HL-60(TB) leukemia): > 10 µM | TGI (HOP-18 NSCLC): > 10 µM | TGI (HOP-62 NSCLC): > 10 µM | TGI (HOP-92 NSCLC): > 10 µM | TGI (HT29 colon): > 10 µM | TGI (K-562 leukemia): > 10 µM | TGI (KM12 colon): > 10 µM | TGI (KM20L2 colon): > 10 µM | TGI (LOX IMVI melanoma): > 10 µM | TGI (LXFL 529 NSCLC): > 10 µM | TGI (M14 melanoma): > 10 µM | TGI (M19-MEL melanoma): > 10 µM | TGI (MALME-3M melanoma): > 10 µM | TGI (MOLT-4 leukemia): > 10 µM | TGI (NCI-H226 lung): > 10 µM | TGI (NCI-H23 lung): > 10 µM | TGI (NCI-H460 lung): > 10 µM | TGI (NCI-H522 lung): > 10 µM | TGI (OVCAR-3 ovarian): > 10 µM | TGI (OVCAR-4 ovarian): > 10 µM | TGI (OVCAR-5 ovarian): > 10 µM | TGI (OVCAR-8 ovarian): > 10 µM | TGI (RPMI-8226 leukemia): > 10 µM | TGI (RXF 393 renal): > 10 µM | TGI (RXF-631 renal): > 10 µM | TGI (SF-268 CNS): > 10 µM | TGI (SF-295 CNS): > 10 µM | TGI (SF-539 CNS): > 10 µM | TGI (SK-MEL-2 melanoma): > 10 µM | TGI (SK-MEL-28 melanoma): > 10 µM | TGI (SK-OV-3 ovarian): > 10 µM | TGI (SN12C renal): > 10 µM | TGI (SNB-19 CNS): > 10 µM | TGI (SNB-75 CNS): > 10 µM | TGI (SNB-78 CNS): > 10 µM | TGI (SW-620 colon): > 10 µM | TGI (TK-10 renal): > 10 µM | TGI (U251 CNS): > 10 µM | TGI (UACC-257 melanoma): > 10 µM | TGI (UACC-62 melanoma): > 10 µM | TGI (UO-31 renal): > 10 µM | TGI (XF 498 CNS): > 10 µM
